Drawing on PubChem BioAssay (NCI), this text covers GI50 and TGI for 9 compounds.

SMILES strings stand for the structures. Values joined by “and” are separate entries in the source; they are usually repeats but may differ in a detail not shown here. Identical values can stand only once.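 All cell lines were grown in 96-well plates and treated with compound for 48 hours. GI50 is the concentration that inhibits growth by half. TGI: concentration producing complete growth inhibition.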

Experiment in all cases: growth of human tumour cells (NCI), 48 h
The subject of assay [1] is HOP-62 NSCLC.
Assay [2] has as its system RPMI-8226 leukemia.
The test system of assay [3] is NCI-H522 lung.
Assay [4] relates to HCT-15 colon.
The subject of assay [5] is SK-MEL-2 melanoma.
Assay [6] has as its system HS 578T breast.
The subject of assay [7] is CCRF-CEM leukemia.
The subject of assay [8] is OVCAR-5 ovarian.

For `C[C@@H]1COC(Nc2ccc3ncnc(Nc4ccc(OCc5nccs5)c(Cl)c4)c3c2)=N1`, the GI50 in assay [1] was 6.8 µM and 7.18 µM; in assay [2], 3.29 µM and 2.56 µM; in assay [3], 0.237 µM and 0.49 µM; in assay [4], 4.07 µM and 5.32 µM; in assay [5], 4.43 µM and 3.47 µM; in assay [6], 5.23 µM and 5.24 µM. In addition, the GI50 in assay [7] is 3.55 µM and 3.46 µM; in assay [8] it was > 10 µM and 11.9 µM. The TGI was > 10 µM and 20.7 µM in assay [1]; > 10 µM and 11.1 µM in assay [2]; > 10 µM and 4.65 µM in assay [3]; > 10 µM and 25.6 µM in assay [4]; > 10 µM and 11.1 µM in assay [5]; > 10 µM and 48.9 µM in assay [6]. The TGI in assay [7] is more than 80.9 µM; in assay [8] it was > 10 µM and 33.3 µM.
Turning to `Cc1cn2c(=O)n(c1=O)Cc1ccccc1C2`, the GI50 in assay [1] was more than 100 µM; in assay [2], 28.3 µM; in assay [3], 43.4 µM; in assay [4], more than 100 µM; in assay [5], more than 100 µM; in assay [6] it was 8.97 µM. Moreover, the figures for the GI50 in assay [7] and in assay [8] were 50.6 µM and more than 100 µM, respectively. The TGI in assay [1], in assay [2], in assay [3], in assay [4], in assay [5] and in assay [6] was more than 100 µM each time. Besides, the TGI in assay [7] and in assay [8] was more than 100 µM each time.
As for `Cc1ccc2[nH]c(C(=O)NN3C(=O)C(C)SC34CCCCC4C)c(-c3ccccc3)c2c1` (stereo unspecified), the GI50 in assay [1] is 20.2 µM; in assay [2], 21.4 µM; in assay [3], 2.4 µM; in assay [4], 18 µM; in assay [5] it was 12 µM; in assay [6] it was 14.4 µM. Also, the GI50 in assay [7] is 21.7 µM; in assay [8], 20.3 µM. In addition, the TGI in assay [1] was 37.7 µM; in assay [2], 64 µM; in assay [3], 16.7 µM; in assay [4], 38.5 µM; in assay [5] it was 26.5 µM; in assay [6], 43.2 µM. Further, the TGI in assay [7] came out at 73 µM; in assay [8], 40.3 µM.
`O=C(/C=C\c1ccc2ccccc2n1)c1cc(Cl)ccc1O`: the GI50 is 6.54 µM in assay [1]; 2.15 µM in assay [2]; 2.88 µM in assay [3]; 2.43 µM in assay [4]; 11.7 µM in assay [5]; 16.2 µM in assay [6]. Further, the results for the GI50 in assay [7] and in assay [8] were 2.16 µM and 14.3 µM, respectively. Further, the TGI in assay [1] turned out to be 20.7 µM; in assay [2] it was 5.83 µM; in assay [3], 16 µM; in assay [4] it was 8.86 µM; in assay [5], 45.2 µM; in assay [6], 62.6 µM. For the same compound, the TGI in assay [7] amounted to 8.29 µM; in assay [8] it was 30.5 µM.
In the case of `CN(C)S(=O)(=O)c1ccc(Nc2ccc(O)c3c2C(=O)c2c([N+](=O)[O-])ccc(O)c2C3=O)cc1`, the TGI in assay [1], in assay [2], in assay [3], in assay [4], in assay [5] and in assay [6] was more than 100 µM in each case. Moreover, the TGI in assay [7] is 44.9 µM; in assay [8], more than 100 µM.
For the compound `Cc1cc(C)c2c(N)c3cccc(C)c3nc2n1`, the GI50 in assay [1] was 1.81 µM; in assay [2], 2.14 µM; in assay [3], 2.61 µM; in assay [4] it was 1.76 µM; in assay [5], 2.03 µM; in assay [6] it was 3.25 µM. Also, the GI50 in assay [7] is 3.84 µM; in assay [8], 2.1 µM. In addition, the TGI in assay [1] was 5.03 µM; in assay [2] it was 6.78 µM; in assay [3], 9.7 µM; in assay [4], 6.5 µM; in assay [5] it was 4.97 µM; in assay [6], 25.1 µM. The TGI in assay [7] worked out at 17 µM; in assay [8], 5.71 µM.
`Oc1ccc(CN(Cc2ccc(C(F)(F)F)cc2)Cc2ccc(O)c3ncccc23)c2cccnc12`: the GI50 in assay [1] is 0.0319 µM; in assay [2] it was 0.0278 µM; in assay [3] it was 0.0218 µM; in assay [4], 0.024 µM; in assay [5] it was 0.0232 µM; in assay [6] it was 0.0438 µM. In addition, the GI50 in assay [7] was 0.0314 µM; in assay [8] it was 0.0736 µM. Besides, the TGI in assay [1] is more than 34.6 µM; in assay [2], more than 100 µM; in assay [3] it was 0.588 µM; in assay [4] it was more than 100 µM; in assay [5], 0.0804 µM; in assay [6], more than 100 µM. The TGI in assay [7] and in assay [8] was more than 100 µM throughout.
In the case of `CCOC(=O)C1=C(c2ccccc2)N(c2ccc(OC)cc2)[C@]2(C#N)C(O)=C(Cl)C(Cl)=C(O)[C@]12C#N`, the GI50 in assay [1] was 20.9 µM; in assay [2], 1.97 µM; in assay [3] it was 21.3 µM; in assay [4], 19.2 µM; in assay [5], 32.4 µM; in assay [6], 43.5 µM. Besides, the GI50 in assay [7] is 10.1 µM; in assay [8], 18.5 µM. For the same compound, the TGI in assay [1] was 40.1 µM; in assay [2], 18 µM; in assay [3], 46.6 µM; in assay [4], 40.8 µM; in assay [5], more than 100 µM; in assay [6], more than 100 µM. For the same compound, the TGI stood at 23.6 µM in assay [7] and 39 µM in assay [8].
As to `Cc1ccccc1C(C(=O)NC1CCCCC1)N(C(=O)Cn1ccnc1C)c1cccc(F)c1` (stereo unspecified), the GI50 in assay [1] was more than 60.4 µM; in assay [2] it was more than 100 µM; in assay [3], more than 100 µM; in assay [4], more than 100 µM; in assay [5] it was 21.3 µM; in assay [6], 28.2 µM. In addition, the GI50 in assay [7] and in assay [8] was more than 100 µM throughout. The TGI in assay [1] is more than 100 µM; in assay [2] it was more than 100 µM; in assay [3], more than 100 µM; in assay [4] it was more than 100 µM; in assay [5], 79.3 µM; in assay [6], more than 100 µM. The TGI in assay [7] and in assay [8] was more than 100 µM throughout.
